# Biological target: human APJ receptor (Homo sapiens (Human), UniProt P35414)
# Assay: Intracellular cAMP accumulation assay (APJ hcAMP, HTRF)
# Type: cell-based
# Settings: HEK293 cells stably expressing human APJ receptor; inhibition of forskolin-mediated cAMP production; read-out: Human APJ cAMP EC50 Potency range
# Outline: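 HEK293 cells stably expressing human APJ, 5,000 per well, incubated 30 min at rt with compound, […] and 2 μM forskolin. cAMP measured by HTRF against a cAMP standard curve as inhibition of forskolin-driven production. EC50 from variable-slope sigmoidal fit.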
# Sequence of human APJ receptor (P35414 whole entry): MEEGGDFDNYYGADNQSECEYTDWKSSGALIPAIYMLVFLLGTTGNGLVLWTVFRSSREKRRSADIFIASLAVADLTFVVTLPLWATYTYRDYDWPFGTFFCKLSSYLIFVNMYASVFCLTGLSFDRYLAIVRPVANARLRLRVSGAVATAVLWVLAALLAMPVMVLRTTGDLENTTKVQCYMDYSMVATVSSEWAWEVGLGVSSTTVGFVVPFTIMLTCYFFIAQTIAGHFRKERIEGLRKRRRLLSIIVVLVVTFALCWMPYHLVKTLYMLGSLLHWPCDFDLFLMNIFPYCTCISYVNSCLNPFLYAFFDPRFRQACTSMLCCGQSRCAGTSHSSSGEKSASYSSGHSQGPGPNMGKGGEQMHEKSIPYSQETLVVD
row,EC50 [nM],SMILES
1,0.01 to 10,"C=C(c1cccc(C#N)c1)n1c(CCCC)nc(=O)c(S(=O)(=O)c2ccc(-c3ccncc3C)cc2)c1O [Example 360, 3-(1-(2-butyl-6-hydroxy-5-((4-(3-methylpyridin-4-yl)phenyl)sulfonyl)-4-oxopyrimidin-1 (4H)-yl)vinyl)benzonitrile]"
2,0.01 to 10,"CCOCc1nc(=O)c(S(=O)(=O)c2ccc(C(C)(C)C)cc2)c(O)n1-c1c(CC)cccc1CC [Example 361, 5-(4-tert-butylbenzenesulfonyl)-1-(2,6-diethylphenyl)-2-(ethoxymethyl)-6-hydroxy-1,4-dihydropyrimidin-4-one]"
3,0.01 to 10,"CCCCc1nc(=O)c(S(=O)(=O)c2ccc(C(C)(C)C)cc2)c(O)n1-c1c(CC)cccc1CC [Example 362, 2-butyl-5-(4-tert-butylbenzenesulfonyl)-1-(2,6-diethylphenyl)-6-hydroxy-1,4-dihydropyrimidin-4-one]"
4,0.01 to 10,"CCCCc1nc(=O)c(S(=O)(=O)c2ccc(C(C)(C)C)cc2)c(O)n1-c1c(OC)cccc1OC [Example 363, 2-butyl-5-(4-tert-butylbenzenesulfonyl)-1-(2,6-dimethoxyphenyl)-6-hydroxy-1,4-dihydropyrimidin-4-one]"
5,0.01 to 10,"CCCCc1nc(=O)c(S(=O)(=O)[C@H]2CC[C@H](OCc3ccccc3)CC2)c(O)n1-c1c(CC)cccc1CC [Example 364, 2-butyl-1-(2,6-diethylphenyl)-6-hydroxy-5-{[(1r,4r)-4-(benzyloxy)cyclohexyl]sulfonyl}-1,4-dihydropyrimidin-4-one]"
6,0.01 to 10,"CCCCc1nc(=O)c(S(=O)(=O)[C@H]2CC[C@@H](OCc3ccccc3)CC2)c(O)n1-c1c(CC)cccc1CC [Example 365, 2-butyl-1-(2,6-diethylphenyl)-6-hydroxy-5-{[(1s,4s)-4-(benzyloxy)cyclohexyl]sulfonyl}-1,4-dihydropyrimidin-4-one]"
7,0.01 to 10,"CCCCc1nc(=O)c(S(=O)(=O)[C@H]2CC[C@H](OCc3ccccc3)CC2)c(O)n1-c1c(OC)cccc1OC [Example 366, 2-butyl-1-(2,6-dimethoxyphenyl)-6-hydroxy-5-{[(1r,4r)-4-(benzyloxy)cyclohexyl]sulfonyl}-1,4-dihydropyrimidin-4-one]"
8,0.01 to 10,"CCCCc1nc(=O)c(S(=O)(=O)[C@H]2CC[C@@H](OCc3ccccc3)CC2)c(O)n1-c1c(OC)cccc1OC [Example 367, 2-butyl-1-(2,6-dimethoxyphenyl)-6-hydroxy-5-{[(1s,4s)-4-(benzyloxy)cyclohexyl]sulfonyl}-1,4-dihydropyrimidin-4-one]"
9,0.01 to 10,"COC[C@@H](c1cc(F)cc(F)c1)n1c(COC(C)C)nc(=O)c(S(=O)(=O)c2ccc(Br)cc2)c1O [Example 368, 5-(4-bromobenzenesulfonyl)-1-[(1R)-1-(3,5-difluorophenyl)-2-methoxyethyl]-6-hydroxy-2-[(propan-2-yloxy)methyl]-1,4-dihydropyrimidin-4-one]"
10,0.01 to 10,"CC[C@@H](c1cccc(C#N)c1)n1c(COC(C)C)nc(=O)c(S(=O)(=O)c2ccc(Br)cc2)c1O [Example 369, 3-[(1S)-1-[5-(4-bromobenzenesulfonyl)-6-hydroxy-4-oxo-2-[(propan-2-yloxy)methyl]-1,4-dihydropyrimidin-1-yl]propyl]benzonitrile]"
11,0.01 to 10,"CCOCc1nc(=O)c(S(=O)(=O)c2ccc(Br)cc2)c(O)n1[C@@H](COC)c1cc(F)cc(F)c1 [Example 370, 5-(4-bromobenzenesulfonyl)-1-[(1R)-1-(3,5-difluorophenyl)-2-methoxyethyl]-2-(ethoxymethyl)-6-hydroxy-1,4-dihydropyrimidin-4-one]"
12,0.01 to 10,"COC[C@@H](c1cccc(C#N)c1)n1c(COC(C)C)nc(=O)c(S(=O)(=O)c2ccc(Br)cc2)c1O [Example 371, 3-[(1R)-1-[5-(4-bromobenzenesulfonyl)-6-hydroxy-4-oxo-2-[(propan-2-yloxy)methyl]-1,4-dihydropyrimidin-1-yl]-2-methoxyethyl]benzonitrile]"
13,0.01 to 10,"CC(C)OCc1nc(=O)c(S(=O)(=O)c2ccc(Br)cc2)c(O)n1[C@H](c1cccc(C#N)c1)C1CC1 [Example 372, 3-[(S)-[5-(4-bromobenzenesulfonyl)-6-hydroxy-4-oxo-2-[(propan-2-yloxy)methyl]-1,4-dihydropyrimidin-1-yl](cyclopropyl)methyl] benzonitrile]"
14,0.01 to 10,"CCOCc1nc(=O)c(S(=O)(=O)c2ccc(-c3ccnc(F)c3C)c(F)c2)c(O)n1C(COC)c1cccc(F)c1 (stereo not drawn) [Example 373, 2-(ethoxymethyl)-5-[3-fluoro-4-(2-fluoro-3-methylpyridin-4-yl)benzenesulfonyl]-1-[1-(3-fluorophenyl)-2-methoxyethyl]-6-hydroxy-1,4-dihydropyrimidin-4-one]"
15,0.01 to 10,"CCOCc1nc(=O)c(S(=O)(=O)c2ccc(-c3ccnc(F)c3C)c(F)c2)c(O)n1C(COC)c1cccc(F)c1 (stereo not drawn) [Example 374, 2-(ethoxymethyl)-5-[3-fluoro-4-(2-fluoro-3-methylpyridin-4-yl)benzenesulfonyl]-1-[1-(3-fluorophenyl)-2-methoxyethyl]-6-hydroxy-1,4-dihydropyrimidin-4-one]"
16,0.01 to 10,"CCOCc1nc(=O)c(S(=O)(=O)c2ccc(-c3ccc(F)nc3C)c(F)c2)c(O)n1C(COC)c1cccc(F)c1 (stereo not drawn) [Example 375, 2-(ethoxymethyl)-5-[3-fluoro-4-(6-fluoro-2-methylpyridin-3-yl)benzenesulfonyl]-1-[1-(3-fluorophenyl)-2-methoxyethyl]-6-hydroxy-1,4-dihydropyrimidin-4-one]"
17,0.01 to 10,"CCOCc1nc(=O)c(S(=O)(=O)c2ccc(-c3ccc(F)nc3C)c(F)c2)c(O)n1C(COC)c1cccc(F)c1 (stereo not drawn) [Example 376, 2-(ethoxymethyl)-5-[3-fluoro-4-(6-fluoro-2-methylpyridin-3-yl)benzenesulfonyl]-1-[1-(3-fluorophenyl)-2-methoxyethyl]-6-hydroxy-1,4-dihydropyrimidin-4-one]"

# Same assay, conditions: human APJ, cAMP accumulation; read-out: Human APJ cAMP EC50 Potency range
row,EC50 [nM],SMILES
1,0.01 to 10,"CCOCc1nc(=O)c(S(=O)(=O)c2ccc(-c3ccnc(F)c3C)c(F)c2)c(O)n1C(COC)c1cccc(F)c1 (stereo not drawn) [Example 346, 2-(ethoxymethyl)-5-[3-fluoro-4-(2-fluoro-3-methylpyridin-4-yl)benzenesulfonyl]-1-[1-(3-fluorophenyl)-2-methoxyethyl]-6-hydroxy-1,4-dihydropyrimidin-4-one]"
2,0.01 to 10,"CCOCc1nc(=O)c(S(=O)(=O)c2ccc(-c3ccc(F)nc3C)c(F)c2)c(O)n1C(COC)c1cccc(F)c1 (stereo not drawn) [Example 347, 2-(ethoxymethyl)-5-[3-fluoro-4-(6-fluoro-2-methylpyridin-3-yl)benzenesulfonyl]-1-[1-(3-fluorophenyl)-2-methoxyethyl]-6-hydroxy-1,4-dihydropyrimidin-4-one]"
3,0.01 to 10,"CCCCc1nc(=O)c(S(=O)(=O)c2ccc(C3CC3)cc2)c(O)n1[C@@H](CC)c1cccc(C#N)c1 [Example 348, 3-[(1S)-1-[2-butyl-5-(4-cyclopropylbenzene-sulfonyl)-6-hydroxy-4-oxo-1,4-dihydropyrimidin-1-yl]propyl]benzonitrile]"
4,100 to 300,"COC[C@@H](c1ccccc1)n1c(C2CCCO2)nc(=O)c(S(=O)(=O)c2ccc(Br)cc2)c1O (stereo partly drawn) [Example 349, 5-(4-bromobenzenesulfonyl)-6-hydroxy-1-[(1R)-2-methoxy-1-phenylethyl]-2-(oxolan-2-yl)-1,4-dihydropyrimidin-4-one]"

# Reference: patent publication US10508104B2, “6-hydroxy-5-(phenyl/heteroarylsulfonyl)pyrimidin-4(1H)-one as APJ agonists” (Bristol-Myers Squibb Company, priority 2016, dated 2019)
